Measured values published in BindingDB's records for doi:10.1016/s0960-894x(98)00091-2 (Eli Lilly, 1999).
pIC50: −log10 of the molar value.

Biological target: NMDA receptor (Rattus norvegicus)
Assay: Binding affinity against Ionotropic glutamate receptor using [3H]- CGS-19755 displacement from rat forebrain preparations

- pIC50: 4.88
SMILES: N[C@@H](C[C@H](CCC(c1ccccc1)c1ccccc1)C(=O)O)C(=O)O [(2S,4S)-2-Amino-4-(3,3-diphenyl-propyl)-pentanedioic acid]
